Columns and labels:
[1] = test system: patients having acute myeloid leukemia; assay: Cytarabine therapy of patients having acute myeloid leukemia, complete remission determined from number of leukocytes; assay type: in vivo, human; settings: of 139 patients with acute myeloid leukemia, cytarabine administered according to NCCN guidelines
Experimental: Cytarabine sensitivity of 139 patients who had acute myeloid leukemia and were treated in Samsung Medical Center was identified. That is, cytarabine was administered to the patients according to NCCN guidelines, and the number of leukocytes was subsequently measured in each patient to determine complete remission to determine whether the cytarabine therapy was effective for the patient. The patients were then classified into one group of 121 patients having cytarabine sensitivity (responders) and the other group of 18 patients not having cytarabine sensitivity (nonresponders). In addition, blood of the patients was obtained to extract DNA by using QIAamp DNA Mini and blood Mini kits in order to determine SNPs associated with cytarabine sensitivity of the patients.

[2] = test system: patients having acute myeloid leukemia; settings: stated as known; cited from earlier work

## Nc1ccn([C@@H]2O[C@H](CO)[C@@H](O)[C@@H]2O)c(=O)n1 [cytarabine, cytosine arabinoside]
[1]
  patients having cytarabine sensitivity (responders): 121 patients
  patients not having cytarabine sensitivity (nonresponders): 18 patients
[2]
  patients having acute myeloid leukemia on whom administration of cytarabine is not effective: about 20%

— patent publication US20120077683A1, “KIT AND METHOD FOR PREDICTING CYTARABINE SENSITIVY OF PATIENT HAVING ACUTE MYELOID LEUKEMIA” (SAMSUNG ELECTRONICS CO., LTD., priority 2010, published 2012)
